# Data: publication PMC7755165 (Xenobiotica; the fate of foreign compounds in biological …, 2019)
# Like-named read-outs stand apart in the source and are kept apart here.
# What was measured:
# [1] = cited from earlier work; for half-life: ref Clark et al., 1995
# recombinant CYP2C19 = recombinant CYP2C19 (Homo sapiens, UniProt P33261); conditions: ref Ramírez et al., (2004); cited from earlier work
# recombinant CYP3A4 [2] = molecular target: T1, recombinant CYP3A4 (Homo sapiens, UniProt P08684); test: Kinetic assay for meperidine N-demethylation by recombinant P450
# T1 sequence (P08684 2-503 limits assumed): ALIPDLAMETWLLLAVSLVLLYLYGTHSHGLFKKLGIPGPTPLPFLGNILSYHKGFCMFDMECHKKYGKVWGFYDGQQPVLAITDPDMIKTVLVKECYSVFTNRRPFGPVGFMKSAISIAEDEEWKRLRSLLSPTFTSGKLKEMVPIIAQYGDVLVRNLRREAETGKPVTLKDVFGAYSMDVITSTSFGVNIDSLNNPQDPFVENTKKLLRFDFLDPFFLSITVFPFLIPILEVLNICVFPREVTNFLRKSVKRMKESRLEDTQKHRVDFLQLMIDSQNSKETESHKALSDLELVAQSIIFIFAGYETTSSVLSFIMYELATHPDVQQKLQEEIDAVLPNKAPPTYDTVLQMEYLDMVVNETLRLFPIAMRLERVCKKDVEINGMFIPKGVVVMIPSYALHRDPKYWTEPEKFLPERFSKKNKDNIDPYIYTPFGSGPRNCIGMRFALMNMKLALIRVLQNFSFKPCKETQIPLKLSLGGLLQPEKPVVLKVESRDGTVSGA
# recombinant CYP3A4 [3] = molecular target: T1, recombinant CYP3A4; conditions: cited from earlier work
# in vitro [4] = conditions: human, pooled human liver microsomes, pH 7.4
# CYP2B6 [5] = molecular target: T2, CYP2B6 (Homo sapiens, UniProt P20813); conditions: ref Ramírez et al., (2004); cited from earlier work
# T2 sequence (P20813 1-491): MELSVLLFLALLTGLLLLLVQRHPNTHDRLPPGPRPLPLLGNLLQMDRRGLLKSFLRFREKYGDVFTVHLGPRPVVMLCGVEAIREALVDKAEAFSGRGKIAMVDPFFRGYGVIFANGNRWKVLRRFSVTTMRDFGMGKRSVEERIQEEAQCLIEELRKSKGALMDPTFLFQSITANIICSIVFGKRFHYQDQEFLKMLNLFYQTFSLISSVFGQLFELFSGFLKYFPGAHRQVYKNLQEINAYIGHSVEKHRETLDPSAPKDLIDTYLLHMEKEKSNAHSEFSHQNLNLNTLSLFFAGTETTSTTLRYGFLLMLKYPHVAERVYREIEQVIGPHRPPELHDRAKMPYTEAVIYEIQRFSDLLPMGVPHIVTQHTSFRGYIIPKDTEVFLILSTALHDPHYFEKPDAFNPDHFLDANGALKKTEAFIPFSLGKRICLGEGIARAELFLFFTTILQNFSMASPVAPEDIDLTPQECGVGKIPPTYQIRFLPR
# CYP2B6 [6] = molecular target: T2, CYP2B6; test: in vitro; conditions: recombinant CYP2B6, pH 7.4
# in vitro [7] = conditions: human, pooled human liver microsomes
# [8] = tested on: single-donor human liver microsomes; conditions: donor (CYP2C19*1/*1); (+)-N-3-benzylnirvanol 5 μM; meperidine 10 μM, 10 min
# Sequence of recombinant CYP2C19 (P33261 whole entry): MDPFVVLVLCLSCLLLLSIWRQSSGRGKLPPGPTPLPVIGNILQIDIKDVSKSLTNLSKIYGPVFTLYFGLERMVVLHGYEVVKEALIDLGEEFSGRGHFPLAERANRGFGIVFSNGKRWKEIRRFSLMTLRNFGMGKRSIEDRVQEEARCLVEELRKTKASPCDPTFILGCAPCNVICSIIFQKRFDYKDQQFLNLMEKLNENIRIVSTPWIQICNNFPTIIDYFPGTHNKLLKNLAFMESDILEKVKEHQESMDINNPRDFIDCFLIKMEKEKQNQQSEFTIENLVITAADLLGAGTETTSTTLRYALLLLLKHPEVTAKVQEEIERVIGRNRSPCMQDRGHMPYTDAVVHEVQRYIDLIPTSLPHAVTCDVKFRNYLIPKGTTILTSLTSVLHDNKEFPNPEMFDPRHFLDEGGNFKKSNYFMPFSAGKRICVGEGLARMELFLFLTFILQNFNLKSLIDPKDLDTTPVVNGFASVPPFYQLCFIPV
structure (smiles),measurement,setting,value
CCOC(=O)C1(c2ccccc2)CCNCC1 [normeperidine],half-life,[1]; at therapeutic doses,14 to 21 h
same,half-life,[1]; patients with renal insufficiency,exceed 34 hours
"CCOC(=O)C1(c2ccccc2)CCN(C)CC1 [meperidine, Meperidine]",relative P450 contribution for normeperidine formation,recombinant CYP2C19,15%
same,Percent Contribution to meperidine N-demethylation,recombinant CYP3A4 [2]; Approach 1 (Rowland-Yeo et al. 2004 abundances),16%
same,Percent Contribution to meperidine N-demethylation,recombinant CYP3A4 [2]; Approach 2 (Achour et al. 2014 abundances),9%
same,Percent Contribution to meperidine N-demethylation,recombinant CYP3A4 [2]; Approach 3 (Rodrigues 1999 abundances),5%
same,"estimated percent P450 contribution (fm, P450) for meperidine N-demethylation",recombinant CYP3A4 [2]; range over three sets of reported P450 abundances,5–16%
same,relative P450 contribution for normeperidine formation,"recombinant CYP3A4 [3]; CYP3A4, ref Ramírez et al., (2004)",28%
same,catalytic efficiency for meperidine N-demethylation,"recombinant CYP3A4 [3]; recombinant CYP3A4, ref Ramirez et al. (2004)",0.07 min⁻¹ µM⁻¹
same,Km at 10 min,in vitro [4],622 ± 63 µM
same,half-life,[1]; patients with normal liver function,2.5 to 4 h
same,parent compound excreted in urine,"[1]; ref Burns et al., 1955, Yeh et al., 1981",5%
same,relative P450 contribution for normeperidine formation,CYP2B6 [5],57%
same,Km at 10 min,CYP2B6 [6],262 ± 59 µM
same,Km,in vitro [7],1600 µM
"CCC1(c2ccccc2)NC(=O)N(Cc2ccccc2)C1=O (single isomer, unassigned; (+)) [benzylnirvanol, (+)-N-3-benzylnirvanol]",reduction of normeperidine formation compared to vehicle control,[8],< 20%
